From patent US20250353891A1 (MEDIMMUNE LIMITED, priority 2022, published 2025)
Starred links: 1 amine or outer side, 2 acyl side, 3 side chain; linkers in the order of their positions; H or OH if unused. Non-standard residues stand in square brackets, D forms with d. Residues, ends and D or L forms follow the SMILES beside them. Groups on a side chain read outwards from the residue. *: point of attachment. C18 diacid = O=C(O)CCCCCCCCCCCCCCCCC(=O)*; γGlu = O=C(O)[C@H](CCC(=O)[*:2])N[*:1]; αMeF = C[C@](N)(Cc1ccccc1)C(=O)O; AEEA = NCCOCCOCC(=O)O; Aib = CC(C)(N)C(=O)O

Key:
[1] = target: human GLP-1 receptor (hGLP-1R) (Homo sapiens, UniProt P43220); assay: cAMP production (HTRF) in CHO cells expressing hGLP-1R; format: cell-based; design: expressed in transfected cells; details: for EC50: Table 6, peptides modified at position 17, cAMP in CHO hGLP-1R cells, geometric mean, read-out: hGLP-1R EC50; for % Relative Potency Ratio: Table 6, % GLP-1R activity relative to GLP-1 / % GlucR activity relative to glucagon
Outline: (§1)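 Cells were resuspended in assay buffer at batch-optimized density, typically 1×10^5 cells/mL for hGLP-1R and 2×10^5 cells/mL for hGCGR. After 30 min incubation at room temperature with compound, cAMP was measured by two-step HTRF. EC50 values came from 4-parameter logistic fits of % Delta F.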

[2] = target: human glucagon receptor (hGCGR) (Homo sapiens, UniProt P47871); assay: cAMP production (HTRF) in CHO cells expressing hGCGR; format: cell-based; design: expressed in transfected cells; details: Table 6, peptides modified at position 17; cAMP in CHO hGCGR cells; geometric mean; read-out: hGluc-R EC50
Outline: as §1

human GLP-1 receptor (hGLP-1R), sequence (P43220 24-463): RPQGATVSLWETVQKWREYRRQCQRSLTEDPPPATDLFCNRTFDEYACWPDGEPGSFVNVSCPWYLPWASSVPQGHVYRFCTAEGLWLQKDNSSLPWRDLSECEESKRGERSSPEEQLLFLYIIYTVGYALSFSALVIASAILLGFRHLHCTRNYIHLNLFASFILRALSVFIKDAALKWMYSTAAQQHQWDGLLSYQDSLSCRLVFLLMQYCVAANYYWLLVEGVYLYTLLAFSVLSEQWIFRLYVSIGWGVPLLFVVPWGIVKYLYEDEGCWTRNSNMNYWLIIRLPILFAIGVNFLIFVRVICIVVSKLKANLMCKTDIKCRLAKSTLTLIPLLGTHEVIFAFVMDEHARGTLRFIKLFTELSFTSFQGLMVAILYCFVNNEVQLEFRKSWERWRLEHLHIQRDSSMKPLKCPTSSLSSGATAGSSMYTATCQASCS
human glucagon receptor (hGCGR), sequence (P47871 26-477): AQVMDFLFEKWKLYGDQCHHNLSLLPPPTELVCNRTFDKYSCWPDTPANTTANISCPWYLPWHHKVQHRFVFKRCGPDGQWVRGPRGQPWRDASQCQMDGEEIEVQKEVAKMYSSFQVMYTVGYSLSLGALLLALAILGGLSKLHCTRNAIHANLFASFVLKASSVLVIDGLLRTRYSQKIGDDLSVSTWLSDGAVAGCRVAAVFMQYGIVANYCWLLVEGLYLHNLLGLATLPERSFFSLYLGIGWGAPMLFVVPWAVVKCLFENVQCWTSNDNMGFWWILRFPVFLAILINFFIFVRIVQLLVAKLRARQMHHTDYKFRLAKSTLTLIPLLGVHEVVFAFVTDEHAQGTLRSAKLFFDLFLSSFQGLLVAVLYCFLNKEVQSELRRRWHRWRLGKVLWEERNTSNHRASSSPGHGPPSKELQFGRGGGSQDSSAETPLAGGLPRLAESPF

| EC50 [1] | % Relative Potency Ratio [1] | EC50 [2] | Structure (SMILES) |
| --- | --- | --- | --- |
| 117 pM | 1.1 | 66.5 pM | CC(C)C[C@H](NC(=O)[C@H](CC(C)C)NC(=O)[C@H](Cc1c[nH]c2ccccc12)NC(=O)[C@H](CCCNC(=N)N)NC(=O)[C@@H](NC(=O)[C@H](Cc1ccccc1)NC(=O)[C@H](CC(=O)O)NC(=O)[C@H](CCC(N)=O)NC(=O)[C@H](C)NC(=O)[C@H](CCCNC(=N)N)NC(=O)[C@H](CCCCNC(=O)COCCOCCNC(=O)COCCOCCNC(=O)CC[C@H](NC(=O)CCCCCCCCCCCCCCCCCCC(=O)O)C(=O)O)NC(=O)[C@H](CCCCN)NC(=O)[C@H](CC(=O)O)NC(=O)[C@H](CC(C)C)NC(=O)[C@](C)(Cc1ccccc1)NC(=O)[C@H](CCCCN)NC(=O)[C@H](CO)NC(=O)[C@@H](NC(=O)[C@H](CC(=O)O)NC(=O)[C@H](CO)NC(=O)[C@@H](NC(=O)[C@H](Cc1ccccc1)NC(=O)[C@@H](NC(=O)CNC(=O)[C@H](CCC(N)=O)NC(=O)C(C)(C)NC(=O)[C@@H](N)Cc1c[nH]cn1)[C@@H](C)O)[C@@H](C)O)C(C)C)C(C)C)C(=O)N[C@@H](C)C(=O)N[C@@H](CCC(=O)O)C(N)=O [Peptide 460] |
| 39.5 pM | 4.5 | 89.2 pM | CC(C)C[C@H](NC(=O)[C@H](CC(C)C)NC(=O)[C@H](Cc1c[nH]c2ccccc12)NC(=O)[C@H](CCC(N)=O)NC(=O)[C@@H](NC(=O)[C@H](Cc1ccccc1)NC(=O)[C@H](CC(=O)O)NC(=O)[C@H](CCCNC(=N)N)NC(=O)[C@H](C)NC(=O)[C@H](CCCNC(=N)N)NC(=O)[C@H](CCCCNC(=O)COCCOCCNC(=O)COCCOCCNC(=O)CC[C@H](NC(=O)CCCCCCCCCCCCCCCCC(=O)O)C(=O)O)NC(=O)[C@@H](NC(=O)[C@H](CC(=O)O)NC(=O)[C@H](CC(C)C)NC(=O)[C@](C)(Cc1ccccc1)NC(=O)[C@H](CCCCN)NC(=O)[C@H](CO)NC(=O)[C@@H](NC(=O)[C@H](CC(=O)O)NC(=O)[C@H](CO)NC(=O)[C@@H](NC(=O)[C@H](Cc1ccccc1)NC(=O)[C@@H](NC(=O)CNC(=O)[C@H](CCC(N)=O)NC(=O)C(C)(C)NC(=O)[C@@H](N)Cc1c[nH]cn1)[C@@H](C)O)[C@@H](C)O)C(C)C)[C@@H](C)O)C(C)C)C(=O)N[C@@H](CCC(=O)O)C(=O)N[C@@H](C)C(=O)NCC(=O)O [Peptide 462] (H-H[Aib]QGTFTSDVSK[αMeF]LDTK([AEEA-AEEA-γGlu-C18 diacid])RARDFVQWLLEAG-OH; N-terminus assumed) |
| 485 pM | 1.8 | 436 pM | CC(C)C[C@H](NC(=O)[C@H](CC(=O)O)NC(=O)[C@H](CC(C)C)NC(=O)[C@](C)(Cc1ccccc1)NC(=O)[C@H](CCCCN)NC(=O)[C@H](CO)NC(=O)[C@@H](NC(=O)[C@H](CC(=O)O)NC(=O)[C@H](CO)NC(=O)[C@@H](NC(=O)[C@H](Cc1ccccc1)NC(=O)[C@@H](NC(=O)CNC(=O)[C@H](CCC(N)=O)NC(=O)C(C)(C)NC(=O)[C@@H](N)Cc1c[nH]cn1)[C@@H](C)O)[C@@H](C)O)C(C)C)C(=O)N[C@@H](CCCCNC(=O)COCCOCCNC(=O)COCCOCCNC(=O)CC[C@H](NC(=O)CC[C@H](NC(=O)CCCCCCCCCCCCCCCCC(=O)O)C(=O)O)C(=O)O)C(=O)N[C@@H](CCCNC(=N)N)C(=O)N[C@@H](C)C(=O)N[C@@H](CCC(N)=O)C(=O)N[C@@H](CC(=O)O)C(=O)N[C@@H](Cc1ccccc1)C(=O)N[C@H](C(=O)N[C@@H](CCC(N)=O)C(=O)N[C@@H](Cc1c[nH]c2ccccc12)C(=O)N[C@@H](CC(C)C)C(=O)N[C@@H](CC(C)C)C(=O)NC(C)(C)C(=O)N[C@H](C(=O)O)[C@@H](C)O)C(C)C [Peptide 465] (H-H[Aib]QGTFTSDVSK[αMeF]LDLK([AEEA-AEEA-γGlu-γGlu-C18 diacid])RAQDFVQWLL[Aib]T-OH; N-terminus assumed) |
